The subject of one data set is CVB3. Put plainly: Inhibition of CVB3 in RD cells (viral RNA, qRT-PCR). The class given is cell-based. The note with it: inhibiting CVB3 in RD cells. The method, then: (§1) (1) RD cells were plated in a 24-well plate.
(2) When the cells grew to a confluence of 70%-80%, the DMEM medium containing 10% serum was replaced with a DMEM medium containing 2% serum (the DMEM medium containing 2% serum was added in each well at an amount of 0.5 mL), and 5 μL of CVB3 virus of 1×10^6 PFU/mL was added to each well.
(§2) (3) After 1 h, the polypeptides with final concentrations of 0.3125 μM, 0.625 μM, 1.25 μM, 2.5 μM, and 5 μM were added respectively. The group without polypeptide added was used as a control.
(4) The samples were collected 24 h after the infection of CVB3 virus, and RNA was extracted with the total RNA extraction kit.
(§3) (5) The supernatant was discarded, then 350 μL of TRK lysate was added to each well, and the plate was put on a shaker for 5 min.
(§4) (6) 350 μL of 70% ethanol (DEPC) was added to each well, and then the plate was put on a shaker for 5 min.
(§5) (7) The solution in each well was transferred to a RNA extraction column for 1 min of centrifugation at 12000 g.
(§6) (8) The solution obtained in the recovery tube was reloaded on the column again for 1 min of centrifugation at 12000 g.
(§7) (9) RNA washing buffer 1 was added in the column for 30 s of centrifugation at 12000 g. […]
(§8) (14) 2 μL of RNA sample was subjected to a fluorescence quantitative experiment using the one step qRT-PCR kit. […]
(Quantitative PCR measures a nucleic acid by following its amplification.)

For the next data set, the system named is RD cells. Description: Toxicity assay in RD cells (CCK-8). Type of data set: cell-based. The note with it: RD cells, 24 h. The procedure: (§9) (1) Different cells were plated in a 96-well plate at 100 μL per well.
(§10) (2) When the cells grew to a confluence of 70%-80%, the DMEM medium containing 10% serum was replaced with a DMEM medium containing 2% serum, and a certain concentration gradient of polypeptide RQ was added, so that the final concentrations of the polypeptide in the wells were 0.073242 μM, 0.146484 μM, 0.292969 μM, 0.585938 μM, 1.171875 μM, 2.34375 μM, 4.6875 μM, 9.375 μM, 18.75 μM, 37.5 μM, 75 μM, 150 μM, and 300 μM, respectively.
(§11) (3) The samples were collected 24 h after the addition of the polypeptide, and then 10 μL of live cell detection reagent CCK-8 was added to each well and mixed well.
(§12) (4) The plate was placed at 37° C. for 2 h.
(§13) (5) The absorbance value at OD450 was detected by a microplate reader.
(§14) (1) RD cells were plated in a 96-well plate at 100 μL per well.
(§15) (2) When the cells grew to a confluence of 70%-80%, the DMEM medium containing 10% serum was replaced with a DMEM medium containing 2% serum, and B-RQ was added so that the final concentrations in the wells were 0.46 μM, 2.34 μM, 4.68 μM, 9.37 μM, 18.75 μM, 37.5 μM, 75 μM, and 150 μM.

A short description of data set [1]: Toxicity assay in RD cells (CCK-8). Type of data set: cell-based. The note with it: human. The procedure: as §9, §10, §11, §12, §13, §14, §15
The next data set concerns Echo 11. Description: Inhibition of Echo 11 in RD cells (viral RNA, qRT-PCR). Type of data set: cell-based. The note with it: inhibiting Echo 11 in RD cells. The method, then:
as §1
(2) When the cells grew to a confluence of 70%-80%, the DMEM medium containing 10% serum was replaced with a DMEM medium containing 2% serum (the DMEM medium containing 2% serum was added in each well at an amount of 0.5 mL), and 5 μL of Echo 11 virus of 1×10^6 PFU/mL was added to each well.
as §2
(4) The samples were collected 24 h after the infection of Echo 11 virus, and RNA was extracted with the total RNA extraction kit.
as §3, §4, §5, §6, §7, §8

Data set [2] has as its system cell-penetrating peptide YGRKKRRQRRR (TAT).

pIC50: −log10 of the molar value. Where “and” joins values, the source holds several entries; their conditions need not be identical. Identical values can stand only once. Entries after “also recorded” stand apart in the source; their conditions may differ.

One may read the pIC50 as the IC50 on a negative log10 scale, so that one unit is a factor of ten. As usually defined, the viability is the share of living cells, or the viability signal relative to a control. One may read the CC50 as the concentration at which the toxic effect on the cells reaches its halfway point. Low readings indicate greater toxicity to the cells, high ones lower toxicity to the cells. In the case of `CC(C)C[C@H](NC(=O)[C@H](C)NC(=O)[C@H](CCC(=O)O)NC(=O)[C@H](CC(C)C)NC(=O)[C@@H](NC(=O)[C@H](C)NC(=O)CNC(=O)[C@@H](NC(=O)[C@H](CO)NC(=O)[C@H](Cc1c[nH]cn1)NC(=O)[C@H](CCCNC(=N)N)NC(=O)[C@H](Cc1c[nH]cn1)NC(=O)[C@H](CC(N)=O)NC(=O)[C@H](Cc1ccc(O)cc1)NC(=O)[C@H](CCC(=O)O)NC(=O)[C@H](CCCNC(=N)N)NC(=O)CNC(=O)[C@H](CO)NC(=O)CNC(=O)[C@H](CCCNC(=N)N)NC(=O)[C@H](CCCNC(=N)N)NC(=O)[C@H](CCCNC(=N)N)NC(=O)[C@H](CCC(N)=O)NC(=O)[C@H](CCCNC(=N)N)NC(=O)[C@H](CCCNC(=N)N)NC(=O)[C@H](CCCCN)NC(=O)[C@H](CCCCN)NC(=O)[C@H](CCCNC(=N)N)NC(=O)CNC(=O)[C@@H](N)Cc1ccc(O)cc1)C(C)C)[C@@H](C)O)C(=O)N[C@@H](Cc1ccccc1)C(=O)N[C@@H](CCC(N)=O)C(=O)O` [B-RQ], the results for the pIC50 in the data set on CVB3 and in the data set on Echo 11 were 5.64 and 6.42, respectively. For the same molecule, the “Cell viability (%)” value in the data set with RD cells (B-RQ 0.46875 μM) was 99.47% and 98.27%; with RD cells (B-RQ 2.34375 μM), 97.93% and 97.19%; in the data set on RD cells (B-RQ 4.6875 μM), 100.7775% and 96.97%; with RD cells (B-RQ 9.375 μM), 96.62% and 96.17%; in the data set on RD cells (B-RQ 18.75 μM) it was 97.36%; with RD cells (B-RQ 37.5 μM), 99.64% and 99.24%. In addition, the “Cell viability (%)” value was 95.66% with RD cells (B-RQ 75 μM); 95.94% and 95.32% with RD cells (B-RQ 150 μM). Also, the viability at 24 h, 0.46875 µM in data set [1] (RD cells, B-RQ 0.46875 μM, 24 h, read-out: Cell viability (%)) came out at 99%. For the same molecule, the viability at 24 h, 2.34375 µM in data set [1] (RD cells, B-RQ 2.34375 μM, 24 h, read-out: Cell viability (%)) came out at 99.1%. Besides, the viability at 24 h, 4.6875 µM in data set [1] (RD cells, B-RQ 4.6875 μM, 24 h, read-out: Cell viability (%)) worked out at 98.7%. The viability at 24 h, 9.375 µM in data set [1] (RD cells, B-RQ 9.375 μM, 24 h, read-out: Cell viability (%)) stood at 99.3%. Moreover, the viability at 24 h, 18.75 µM in data set [1] (RD cells, B-RQ 18.75 μM, 24 h, read-out: Cell viability (%)) was 97.8%. For the same molecule, in data set [1] (RD cells, B-RQ 37.5 μM, 24 h, read-out: Cell viability (%)), the viability at 24 h, 37.5 µM is 99.4%. Further, the viability at 24 h, 75 µM in data set [1] (RD cells, B-RQ 75 μM, 24 h, read-out: Cell viability (%)) is 96%. The viability at 24 h, 150 µM in data set [1] (RD cells, B-RQ 150 μM, 24 h, read-out: Cell viability (%)) turned out to be 95.5%. For the same molecule, the CC50 at 24 h in data set [1] (Table 1 (RD cells)) is more than 75000 nM.
Consider MBP-EV71 2C protein, for which the results for the “helicase activity (unwinding of HEX-labeled dsRNA substrate, gel electrophoresis)” value (in the data set on polypeptide RQ; in data set [2]) were “the addition of RQ inhibited the helicase activity of 2C (lane 5); also recorded: RQ inhibited the helicase activity of EV71 2C in a dose-dependent manner” and “the control TAT did not affect the helicase activity of 2C (lane 4)”, respectively.

The record behind these values is patent US20250263436A1, “BROAD-SPECTRUM ANTIVIRAL DRUG FOR ENTEROVIRUS, AND APPLICATION” (WUHAN INSTITUTE OF VIROLOGY, CHINESE ACADEMY OF SCIENCES, priority 2020, published 2025).
